{"source": "patent US11974976B2", "about": "“Animal feeds and feed premixes containing betaine hydrochloride and a phytase” (Rural Chemical Industries (AUST) PTY LTD, priority 2013, dated 2024)", "format_in_all_cases": "in vivo, broiler chicks", "key": {"male Ross 308 chicks [1]": {"system": "male Ross 308 chicks", "experiment": "N excretion during total excreta collection period", "details": "for N excretion: total excreta collection period, phytase 500 FTU/kg, betaine 2.75 g/kg", "method": "(§1) The composition and nutrient specifications of the three basal starter (1-16 days post-hatch) and finisher (17-37 days post-hatch) diets are shown in Table 1. An NSP-degrading enzyme (Econase XT) was included across all the wheat-based diets to reflect standard practice and the finisher diets contained 20 g/kg Celite as an acid insoluble ash dietary marker. The starter diets were fed as mash, while the finisher diets were steam-pelleted at a conditioning temperature of 85° C. The NC1 diets were the ‘phytase-modified’ diets with formulated with reductions of 1.4 g/kg Ca and 1.5 g/kg P in the starter diets, which mainly stemmed from the elimination of dicalcium phosphate. The corresponding reductions in the finisher diets were 1.2 g/kg Ca and 1.4/kg P. The NC2 diets were the ‘betaine-modified’ diets in which energy density, methionine and choline levels were reduced mainly by lower inclusion levels of canola oil and synthetic methionine and the elimination of choline chloride relative to the PC diets. The energy densities were reduced from 12.55 to 12.24 MJ/kg in the starter diets and from 12.97 to 12.66 MJ/kg in the finisher diets. Methionine levels were reduced from 4.44 to 3.19 g/kg in the starter diets and from 4.18 to 2.93 g/kg in the finisher diets. Exogenous phytase (Quantum® Blue; AB Vista) was included in the relevant diets at 100 g per tonne or 500 FTU/kg phytase activity and, similarly, betaine HCl (Hi Beta″, 970 g/kg betaine hydrochloride; Rural Chemical Industries) was included in the diets at 2.75 g/kg.\n(§2) The parameters evaluated included growth performance (weight gains, feed intakes, feed conversion ratios; FCR) from 1 to 16, 17 to 37 and 1 to 37 days post-hatch, 1 to 37 days weight gain-corrected FCR, mortality/cull rates, percentage toe ash, nitrogen (N) excretion and nutrient utilisation. Nutrient utilisation included apparent metabolisable energy (AME), expressed as both MJ/kg and MJ/day, N retention and N-corrected AME (AMEn). Also, breast weights in absolute and relative (% yield) terms, abdominal fat pad weights and pH of gizzard contents were determined. However, for reasons of practical expediency, absolute breast weights were determined on a ‘bone-in’ basis from birds that had not been de-feathered and this approach inflates both the absolute weight and yield; nevertheless, the data remains indicative. The experimental data was obtained and calculated via standard procedures followed by the Poultry Research Foundation. While the various procedures are not detailed in this report the majority of them have been described in detail (Selle et al., 2003b) previously.\n(§3) The experimental data was statistically analysed as a 3×2×2 factorial array of dietary treatments. That is diet type (PC, NC1, NC2), without and with the addition of phytase, without and with the addition of betaine HCl. Each of the 12 dietary treatments was offered to 8 replicate cages of 6 birds or a total of 96 cages and 576 birds (male Ross 308 chicks). The IBM® SPSS® Statistics 20 program was used to analyse experimental data and the study complied with specific guidelines of the Animal Ethics Committee of Sydney University."}, "male Ross 308 chicks [2]": {"system": "male Ross 308 chicks", "experiment": "Nutrient utilisation (AME, N retention, N-corrected AME)", "details": "for Increase in AMEn on addition to diet: diet type x betaine HCl interaction; for AME / AME (energy intake) / AMEn / N retention: phytase 500 FTU/kg, betaine 2.75 g/kg", "text": "Energy that is not metabolisable is ‘excreted energy’. Another way of defining ‘metabolisable energy’ is to refer to an ‘apparent metabolisable energy value’ or ‘AME value’. An ‘AME value’ is simply the gross energy of the feed consumed minus the gross energy contained in the faeces, urine, and gaseous products of digestion."}, "male Ross 308 chicks [3]": {"system": "male Ross 308 chicks", "experiment": "Carcass traits (breast weight, breast meat yield, abdominal fat pad weight)", "details": "for Breast weight: bone-in; for Breast weight / Breast meat yield / Fat pad weight: phytase 500 FTU/kg, betaine 2.75 g/kg", "method": "as §1, §2, §3"}, "[4]": {"details": "main effect across diets, hydrochloride"}, "[5]": {"details": "main effect across diets, listed as Betaine HCl, hydrochloride"}, "[6]": {"details": "main effect across diets, listed as betaine HCl, hydrochloride"}, "[7]": {"details": "main effect across diets, listed as betaine, hydrochloride"}}, "note": "Where a name gives a salt, the structure may show the parent alone. Marks after values point to notes of the source that are not given here.", "data": [{"smiles": "C[N+](C)(C)CC(=O)O", "note": "[Betaine, betaine hydrochloride]", "values": [{"measurement": "N excretion", "setting": "male Ross 308 chicks [1]; NC1 diets", "result": 37.30, "unit": "g/bird"}, {"measurement": "Reduction of N excretion versus NC2 control diets", "setting": "male Ross 308 chicks [1]; NC2 diets", "result": 7.03, "unit": "%"}, {"measurement": "N excretion", "setting": "male Ross 308 chicks [1]; NC2 diets", "result": 42.47, "unit": "g/bird"}, {"measurement": "N excretion", "setting": "male Ross 308 chicks [1]; PC diets", "result": 40.34, "unit": "g/bird"}, {"measurement": "Reduction of N excretion", "setting": "male Ross 308 chicks [1]; main effect", "result": 7.69, "unit": "%"}, {"measurement": "N excretion", "setting": "male Ross 308 chicks [1]; [4]", "result": "38.79^a g/bird"}, {"measurement": "N excretion", "setting": "male Ross 308 chicks [1]; [5]", "result": 38.79, "unit": "g/bird"}, {"measurement": "N excretion", "setting": "male Ross 308 chicks [1]; [6]", "result": 38.79, "unit": "g/bird"}, {"measurement": "AME, diet type x betaine interaction mean", "setting": "male Ross 308 chicks [2]; NC1 diets", "result": 13.10, "unit": "mJ/kg"}, {"measurement": "AMEn, diet type x betaine HCl interaction mean", "setting": "male Ross 308 chicks [2]; NC1 diets", "result": 11.36, "unit": "mJ/kg"}, {"measurement": "Increase in AMEn on addition to diet", "setting": "male Ross 308 chicks [2]; NC1 diets", "result": 1.01, "unit": "mJ"}, {"measurement": "Increase in AME on addition to diet", "setting": "male Ross 308 chicks [2]; NC1 diets, diet type x betaine interaction", "result": 0.78, "unit": "mJ"}, {"measurement": "Increase in AME relative to control diet", "setting": "male Ross 308 chicks [2]; NC1 diets, individual addition", "result": 0.44, "unit": "mJ"}, {"measurement": "AME", "setting": "male Ross 308 chicks [2]; NC1 diets", "result": 12.77, "unit": "MJ/kg DM"}, {"measurement": "AME (energy intake)", "setting": "male Ross 308 chicks [2]; NC1 diets", "result": 1.868, "unit": "mJ/day"}, {"measurement": "AMEn", "setting": "male Ross 308 chicks [2]; NC1 diets", "result": 11.25, "unit": "MJ/kg DM"}, {"measurement": "N retention", "setting": "male Ross 308 chicks [2]; NC1 diets", "result": 52.14, "unit": "%"}, {"measurement": "Increase in AMEn on addition to diet", "setting": "male Ross 308 chicks [2]; NC2 diets", "result": 0.17, "unit": "mJ"}, {"measurement": "Decrease in AME on addition to diet", "setting": "male Ross 308 chicks [2]; NC2 diets, diet type x betaine interaction", "result": 0.08, "unit": "mJ"}, {"measurement": "AME", "setting": "male Ross 308 chicks [2]; NC2 diets", "result": 12.86, "unit": "MJ/kg DM"}, {"measurement": "AME (energy intake)", "setting": "male Ross 308 chicks [2]; NC2 diets", "result": 2.061, "unit": "mJ/day"}, {"measurement": "AMEn", "setting": "male Ross 308 chicks [2]; NC2 diets", "result": 11.43, "unit": "MJ/kg DM"}, {"measurement": "N retention", "setting": "male Ross 308 chicks [2]; NC2 diets", "result": 49.25, "unit": "%"}, {"measurement": "Increase in AMEn on addition to diet", "setting": "male Ross 308 chicks [2]; PC diets", "result": 0.23, "unit": "mJ"}, {"measurement": "Increase in AME on addition to diet", "setting": "male Ross 308 chicks [2]; PC diets, diet type x betaine interaction", "result": 0.20, "unit": "mJ"}, {"measurement": "AME", "setting": "male Ross 308 chicks [2]; PC diets", "result": 13.29, "unit": "MJ/kg DM"}, {"measurement": "AME (energy intake)", "setting": "male Ross 308 chicks [2]; PC diets", "result": 2.077, "unit": "mJ/day"}, {"measurement": "AMEn", "setting": "male Ross 308 chicks [2]; PC diets", "result": 11.69, "unit": "MJ/kg DM"}, {"measurement": "N retention", "setting": "male Ross 308 chicks [2]; PC diets", "result": 52.05, "unit": "%"}, {"measurement": "AME (energy intake), phytase x betaine interaction mean", "setting": "male Ross 308 chicks [2]; across diet types", "result": 2.002, "unit": "mJ/day"}, {"measurement": "AMEn, phytase x betaine HCl interaction mean", "setting": "male Ross 308 chicks [2]; across diet types", "result": 11.46, "unit": "mJ/kg"}, {"measurement": "Increase in AMEn by betaine HCl", "setting": "male Ross 308 chicks [2]; in the absence of phytase", "result": 0.20, "unit": "mJ"}, {"measurement": "Decrease in AME on betaine addition", "setting": "male Ross 308 chicks [2]; in the absence of phytase, across diet types", "result": 0.08, "unit": "mJ"}, {"measurement": "Increase in AMEn by betaine HCl", "setting": "male Ross 308 chicks [2]; in the presence of phytase", "result": 0.74, "unit": "mJ"}, {"measurement": "Increase in AME on betaine addition", "setting": "male Ross 308 chicks [2]; in the presence of phytase, across diet types", "result": 0.67, "unit": "mJ"}, {"measurement": "Increase in AME", "setting": "male Ross 308 chicks [2]; main effect", "result": 0.30, "unit": "mJ/kg"}, {"measurement": "N retention", "setting": "male Ross 308 chicks [2]; main effect across diets", "result": 52.02, "unit": "%"}, {"measurement": "AME", "setting": "male Ross 308 chicks [2]; [4]", "result": "13.33^b MJ/kg DM"}, {"measurement": "AME (energy intake)", "setting": "male Ross 308 chicks [2]; [4]", "result": 2.126, "unit": "mJ/day"}, {"measurement": "AMEn", "setting": "male Ross 308 chicks [2]; [4]", "result": "11.79^b MJ/kg DM"}, {"measurement": "AMEn", "setting": "male Ross 308 chicks [2]; [6]", "result": 11.79, "unit": "MJ/kg DM"}, {"measurement": "AME", "setting": "male Ross 308 chicks [2]; [7]", "result": 13.33, "unit": "MJ/kg DM"}, {"measurement": "AME (energy intake)", "setting": "male Ross 308 chicks [2]; [7]", "result": "did not influence"}, {"measurement": "Breast weight", "setting": "male Ross 308 chicks [3]; NC1 diets", "result": 526, "unit": "g/bird"}, {"measurement": "Breast meat yield", "setting": "male Ross 308 chicks [3]; NC1 diets", "result": 25.7, "unit": "%"}, {"measurement": "Fat pad weight", "setting": "male Ross 308 chicks [3]; NC1 diets", "result": 14.7, "unit": "g/bird"}, {"measurement": "Breast weight", "setting": "male Ross 308 chicks [3]; NC2 diets", "result": 625, "unit": "g/bird"}, {"measurement": "Breast meat yield", "setting": "male Ross 308 chicks [3]; NC2 diets", "result": 26.9, "unit": "%"}, {"measurement": "Fat pad weight", "setting": "male Ross 308 chicks [3]; NC2 diets", "result": 18.4, "unit": "g/bird"}, {"measurement": "Breast weight", "setting": "male Ross 308 chicks [3]; PC diets", "result": 660, "unit": "g/bird"}, {"measurement": "Breast meat yield", "setting": "male Ross 308 chicks [3]; PC diets", "result": 28.3, "unit": "%"}, {"measurement": "Fat pad weight", "setting": "male Ross 308 chicks [3]; PC diets", "result": 17.3, "unit": "g/bird"}, {"measurement": "Breast meat yield, phytase x betaine interaction mean", "setting": "male Ross 308 chicks [3]; across diet types", "result": 27.0, "unit": "%"}, {"measurement": "Fat pad weight, phytase x betaine interaction mean", "setting": "male Ross 308 chicks [3]; across diet types", "result": 16.8, "unit": "g/bird"}, {"measurement": "Decrease in fat pad weights by betaine HCl", "setting": "male Ross 308 chicks [3]; in the absence of phytase", "result": 17.6, "unit": "%"}, {"measurement": "Increase in fat pad weights by betaine HCl", "setting": "male Ross 308 chicks [3]; in the presence of phytase", "result": 8.67, "unit": "%"}, {"measurement": "Increase in breast meat yield (relative)", "setting": "male Ross 308 chicks [3]; main effect", "result": 1.91, "unit": "%"}, {"measurement": "Increase in breast yield", "setting": "male Ross 308 chicks [3]; main effect", "result": 0.5, "unit": "percentage units"}, {"measurement": "Breast weight", "setting": "male Ross 308 chicks [3]; [4]", "result": 624, "unit": "g/bird"}, {"measurement": "Breast weight", "setting": "male Ross 308 chicks [3]; [7]", "result": "no influence"}, {"measurement": "Breast meat yield", "setting": "male Ross 308 chicks [3]; [4]", "result": "26.7^b %"}, {"measurement": "Fat pad weight", "setting": "male Ross 308 chicks [3]; [4]", "result": 19.1, "unit": "g/bird"}, {"measurement": "Breast meat yield", "setting": "male Ross 308 chicks [3]; [5]", "result": 26.7, "unit": "%"}, {"measurement": "Breast meat yield", "setting": "male Ross 308 chicks [3]; [6]", "result": 26.7, "unit": "%"}, {"measurement": "Fat pad weight", "setting": "male Ross 308 chicks [3]; [6]", "result": "no effect"}]}]}
